Test results as given in patent publication US10611740B2, “Aryl dihydro-2H-benzo[b][1,4]oxazine sulfonamide and related compounds for use as agonists of RORγ and the treatment of disease” (Lycera Corporation, priority 2015, dated 2020).

Legend:
[1] = molecular target: T1, Gal4-RORγ-LBD (Homo sapiens, UniProt P51449); assay: Gal4-RORγ Luciferase Reporter Assay in HEK-293T Cells; assay type: cell-based; conditions: HEK-293 cells, luciferase reporter, with 2 μM ursolic acid
T1 construct: expressed in transfected cells; host or cells: HEK-293 cells (pcDNA3.1neo plasmid)
T1 sequence (P51449 269-508 limits assumed): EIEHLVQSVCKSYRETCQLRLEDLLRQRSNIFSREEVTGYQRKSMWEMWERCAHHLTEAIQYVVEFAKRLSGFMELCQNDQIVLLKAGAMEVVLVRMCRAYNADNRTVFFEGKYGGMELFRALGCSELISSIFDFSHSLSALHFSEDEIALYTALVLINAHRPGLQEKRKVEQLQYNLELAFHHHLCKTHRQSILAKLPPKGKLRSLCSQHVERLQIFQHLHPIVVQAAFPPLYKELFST
Outline: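 In transfected HEK-293 cells (Gal4-RORγ-LBD, Gal4-luciferase), test agents with 2 μM ursolic acid were incubated overnight at 37 °C before luminescent detection. Values are relative to the ursolic-acid-free, compound-free signal (100).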

[2] = molecular target: T2, RORγ-LBD (Homo sapiens, UniProt P51449); assay: RORγ-Ligand Binding Domain (LBD) TR-FRET Assay; assay type: biochemical;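 on TR-FRET Assay Max Response: 665/615 nm ratio relative to signal without ursolic acid or compound set at 100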
T2 construct: made in house; host or cells: SF9 cells (baculovirus)
T2 sequence (P51449 269-508 limits assumed): T1 sequence (P51449 269-508 limits assumed)
Outline: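 SF9 lysate containing His-RORγ-LBD, ~3 nM final; coactivator peptide biotin-SRC1 LXXLL, 200 nM final; ursolic acid 2 μM final; DMSO 1% final; Tris pH 7.0 buffer with KCl, EDTA, DTT, BSA. TR-FRET format.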

SMILES | EC50 [1] | Gal4-RORγ Assay Max Response [1] | EC50 [2] | TR-FRET Assay Max Response [2]
Cn1cc(-c2ccc3c(c2)N(S(=O)(=O)c2cccc(C(F)(F)F)c2)C[C@H](CCC(=O)O)O3)cn1 [Compound 2AQ, (S)-3-(6-(1-methyl-1H-pyrazol-4-yl)-4-((3-(trifluoromethyl)-phenyl)sulfonyl)-3,4-dihydro-2H-benzo[b][1,4]oxazin-2-yl)propanoic acid] | 500 to 5000 nM | * (The symbol “*” indicates a value in the range of 25 to 90) | 500 to 5000 nM | **** (The symbol “****” indicates a value greater than 200)
Cn1nccc1-c1ccc2c(c1)N(S(=O)(=O)c1cccc(C(F)(F)F)c1)C[C@H](CCC(=O)O)O2 [Compound 2AR, (S)-3-(6-(1-methyl-1H-pyrazol-5-yl)-4-((3-(trifluoromethyl)-phenyl)sulfonyl)-3,4-dihydro-2H-benzo[b][1,4]oxazin-2-yl)propanoic acid] | > 10000 nM | – | 500 to 5000 nM | * (The symbol “*” indicates a value in the range of 25 to 90)
CCOc1cccc(-c2ccc3c(c2)N(S(=O)(=O)c2cccc(C(F)(F)F)c2)C[C@H](CCC(=O)O)O3)c1 [Compound 2AS, (S)-3-(6-(3-ethoxyphenyl)-4-((3-(trifluoromethyl)phenyl)-sulfonyl)-3,4-dihydro-2H-benzo[b][1,4]-oxazin-2-yl)propanoic acid] | 500 to 5000 nM | ** (The symbol “**” indicates a value in the range of greater than 90 to 150) | < 500 nM | **** (The symbol “****” indicates a value greater than 200)
N#Cc1cccc(-c2ccc3c(c2)N(S(=O)(=O)c2cccc(C(F)(F)F)c2)C[C@H](CCC(=O)O)O3)c1 [Compound 2AT, (S)-3-(6-(3-cyanophenyl)-4-((3-(trifluoromethyl)phenyl)-sulfonyl)-3,4-dihydro-2H-benzo[b][1,4]oxazin-2-yl)propanoic acid] | 500 to 5000 nM | ** (The symbol “**” indicates a value in the range of greater than 90 to 150) | < 500 nM | **** (The symbol “****” indicates a value greater than 200)
O=C(O)CC[C@H]1CN(S(=O)(=O)c2cccc(C(F)(F)F)c2)c2cc(-c3cccc(O)c3)ccc2O1 [Compound 2AU, (S)-3-(6-(3-hydroxyphenyl)-4-((3-(trifluoromethyl)phenyl)-sulfonyl)-3,4-dihydro-2H-benzo[b][1,4]oxazin-2-yl)propanoic acid] | 500 to 5000 nM | * (The symbol “*” indicates a value in the range of 25 to 90) | < 500 nM | *** (The symbol “***” indicates a value in the range of greater than 150 to 200)
CC(C)Oc1cccc(-c2ccc3c(c2)N(S(=O)(=O)c2cccc(C(F)(F)F)c2)C[C@H](CCC(=O)O)O3)c1 [Compound 2AV, (S)-3-(6-(3-isopropoxyphenyl)-4-((3-(trifluoromethyl)phenyl)-sulfonyl)-3,4-dihydro-2H-benzo[b][1,4]oxazin-2-yl)propanoic acid] | 500 to 5000 nM | * (The symbol “*” indicates a value in the range of 25 to 90) | < 500 nM | **** (The symbol “****” indicates a value greater than 200)
O=C(O)CC[C@H]1CN(S(=O)(=O)c2cccc(C(F)(F)F)c2)c2cc(-c3ccccc3O)ccc2O1 [Compound 2AW, (S)-3-(6-(2-hydroxyphenyl)-4-((3-(trifluoromethyl)phenyl)-sulfonyl)-3,4-dihydro-2H-benzo[b][1,4]oxazin-2-yl)propanoic acid] | 500 to 5000 nM | ** (The symbol “**” indicates a value in the range of greater than 90 to 150) | < 500 nM | **** (The symbol “****” indicates a value greater than 200)
Cc1cccc(-c2ccc3c(c2)N(S(=O)(=O)c2cccc(C(F)(F)F)c2)C[C@H](CCC(=O)O)O3)c1F [Compound 2AY, (S)-3-(6-(2-fluoro-3-methyl-phenyl)-4-((3-(trifluoro-methyl)phenyl)sulfonyl)-3,4-dihydro-2H-benzo[b][1,4]-oxazin-2-yl)propanoic acid] | 500 to 5000 nM | **** (The symbol “****” indicates a value greater than 200) | < 500 nM | **** (The symbol “****” indicates a value greater than 200)
Cc1nnc(-c2ccc3c(c2)N(S(=O)(=O)c2cccc(C(F)(F)F)c2)C[C@H](CCC(=O)O)O3)s1 [Compound 2AZ, (S)-3-(6-(5-methyl-1,3,4-thiadiazol-2-yl)-4-((3-(trifluoromethyl)phenyl)-sulfonyl)-3,4-dihydro-2H-benzo[b][1,4]oxazin-2-yl)propanoic acid] | > 10000 nM | ** (The symbol “**” indicates a value in the range of greater than 90 to 150) | > 10000 nM | –
Cc1ccc(F)cc1-c1ccc2c(c1)N(S(=O)(=O)c1cccc(C(F)(F)F)c1)C[C@H](CCC(=O)O)O2 [Compound 2BA, (S)-3-(6-(5-fluoro-2-methylphenyl)-4-((3-(trifluoromethyl)phenyl)sulfonyl)-3,4-dihydro-2H-benzo[b][1,4]oxazin-2-yl)propanoic acid] | < 500 nM | ** (The symbol “**” indicates a value in the range of greater than 90 to 150) | < 500 nM | **** (The symbol “****” indicates a value greater than 200)
COc1c(F)cc(F)cc1-c1ccc2c(c1)N(S(=O)(=O)c1cccc(C(F)(F)F)c1)C[C@H](CCC(=O)O)O2 [Compound 2BC, (S)-3-(6-(3,5-difluoro-2-methoxyphenyl)-4-((3-(trifluoromethyl)phenyl)-sulfonyl)-3,4-dihydro-2H-benzo[b][1,4]oxazin-2-yl)propanoic acid] | < 500 nM | *** (The symbol “***” indicates a value in the range of greater than 150 to 200) | < 500 nM | **** (The symbol “****” indicates a value greater than 200)
CCc1ccccc1-c1ccc2c(c1)N(S(=O)(=O)c1cccc(C(F)(F)F)c1)C[C@H](CCC(=O)O)O2 [Compound 2BD, (S)-3-(6-(2-ethylphenyl)-4-((3-(trifluoromethyl)phenyl)sulfonyl)-3,4-dihydro-2H-benzo[b][1,4]oxazin-2-yl)propanoic acid] | < 500 nM | ** (The symbol “**” indicates a value in the range of greater than 90 to 150) | < 500 nM | **** (The symbol “****” indicates a value greater than 200)
O=C(O)CC[C@H]1CN(S(=O)(=O)c2cccc(C(F)(F)F)c2)c2cc(-c3cccnc3Cl)ccc2O1 [Compound 2BE, (S)-3-(6-(2-chloropyridin-3-yl)-4-((3-(trifluoromethyl)phenyl)-sulfonyl)-3,4-dihydro-2H-benzo[b][1,4]oxazin-2-yl)propanoic acid] | 500 to 5000 nM | ** (The symbol “**” indicates a value in the range of greater than 90 to 150) | < 500 nM | **** (The symbol “****” indicates a value greater than 200)
